The source of these data is patent US11286266B2, “1-imidazothiadiazolo-2H-pyrrol-5-one derivatives” (UCB Biopharma SRL, priority 2018, dated 2022).

Where “and” joins values, the source holds several entries; their conditions need not be identical. Equal values may be shown once.

As a reminder, the Ki is the equilibrium dissociation constant of an inhibitor or competing ligand from its target. A higher Ki goes with lower affinity.

The target in the experiment is T1, Human SV2A (Homo sapiens, UniProt Q7L0J3).
T1 construct: expressed in transfected cells; host or cells: human embryonic kidney (HEK) cells; membrane preparations
T1 sequence (Q7L0J3 whole entry): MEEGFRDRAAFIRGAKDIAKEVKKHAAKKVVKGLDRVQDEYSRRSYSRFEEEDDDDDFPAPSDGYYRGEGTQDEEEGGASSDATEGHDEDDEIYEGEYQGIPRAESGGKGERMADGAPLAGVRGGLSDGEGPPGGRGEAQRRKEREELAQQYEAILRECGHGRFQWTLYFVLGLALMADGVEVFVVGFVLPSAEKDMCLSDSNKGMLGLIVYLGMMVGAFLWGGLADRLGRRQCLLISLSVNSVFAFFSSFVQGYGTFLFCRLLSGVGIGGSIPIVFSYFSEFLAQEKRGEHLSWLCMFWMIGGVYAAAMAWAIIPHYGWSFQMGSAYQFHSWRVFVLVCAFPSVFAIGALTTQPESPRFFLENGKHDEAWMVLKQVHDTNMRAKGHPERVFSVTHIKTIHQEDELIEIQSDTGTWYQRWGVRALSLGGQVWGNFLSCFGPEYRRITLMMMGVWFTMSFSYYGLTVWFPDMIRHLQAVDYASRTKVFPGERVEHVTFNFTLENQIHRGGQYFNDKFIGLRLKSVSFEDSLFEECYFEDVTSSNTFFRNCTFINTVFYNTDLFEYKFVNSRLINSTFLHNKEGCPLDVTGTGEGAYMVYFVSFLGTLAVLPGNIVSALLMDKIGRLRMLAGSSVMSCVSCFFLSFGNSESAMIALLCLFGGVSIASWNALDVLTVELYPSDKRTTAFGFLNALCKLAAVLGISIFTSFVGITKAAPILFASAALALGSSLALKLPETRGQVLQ
In words: Binding assay to SV2A (radioligand competition, HEK membranes). Particulars: human SV2A in HEK membranes, 60 min at 37° C., pIC50 corrected to pKi by Cheng and Prusoff. Here is the method: Human SV2A and SV2C proteins were expressed in human embryonic kidney (HEK) cells. HEK SV2A and HEK SV2C membrane preparations were prepared as described in Gillard et al (Eur. J. Pharmacol. 2006, 536, 102-108). To measure affinity of non-labelled compounds, competition experiments were performed as follow: Membranes expressing SV2 proteins (5 to 15 μg proteins per assay) were incubated for 60 min at 37° C. with either [^3H]-2-[4-(3-azidophenyl)-2-oxo-1-pyrrolidinyl]butanamide (5 nM) and/or [^3H]-4R-(2-chloro-2,2-difluoroethyl)-1-{[2-(methoxymethyl)-6-(trifluoromethyl)imidazo[2,1-b][1,3,4]thiadiazol-5-yl]methyl}pyrrolidin-2-one (25 nM) in 0.2 ml of a 50 mM Tris-HCl buffer (pH 7.4) containing 2 mM MgCl2, 0.1% dimethylsulfoxide and ten increasing concentrations of non-labelled test compound (0.1 nM to 10 μM). At the end of the incubation period, the membrane-bound radioligand was recovered by rapid filtration through GF/C glass fiber filters pre-soaked in 0.1% polyethyleneimine. Membranes were washed with at least 4 times the assay volume of ice-cold 50 mM Tris HCl buffer (pH 7.4). The filters were dried and the radioactivity determined by liquid scintillation. […] Measured affinity plC50 values were corrected to pKi according to Cheng and Prusoff (Biochem. Pharmacol. 1973, 22(23), 3099-3108).
In general terms: In a radioligand displacement assay an active substance lowers the binding of a labelled ligand.
`COCc1nn2c(CN3CC(C4CC4(F)F)=CC3=O)c(C(F)(F)F)nc2s1` (single isomer, unassigned) [Example 17-A, 3-(2,2-difluorocyclopropyl)-1-[[2-(methoxymethyl)-6-(trifluoromethyl)imidazo[2,1-b][1,3,4]thiadiazol-5-yl]methyl]-2H-pyrrol-5-one]: the Ki is 3.16 to 10 nM.

Turning to `COCc1nn2c(CN3CC(C4CC4(F)F)=CC3=O)c(C)nc2s1` (single isomer, unassigned) [Example 18-A, 1-[[2-(methoxymethyl)-6-methyl-imidazo[2,1-b][1,3,4]thiadiazol-5-yl]methyl]-3-[2,2-difluorocyclopropyl]-2H-pyrrol-5-one], the Ki was 10 to 31.6 nM.

Regarding `COCc1nn2c(CN3CC(C4CC4(F)F)=CC3=O)c(C)nc2s1` (single isomer, unassigned) [Example 18-B, 1-[[2-(methoxymethyl)-6-methyl-imidazo[2,1-b][1,3,4]thiadiazol-5-yl]methyl]-3-[2,2-difluorocyclopropyl]-2H-pyrrol-5-one], the Ki is 31.6 to 316 nM.

Consider `COCc1nn2c(CN3CC(C4CC4(F)F)=CC3=O)c(C(F)F)nc2s1` (single isomer, unassigned) [Example 19-A, 1-[[6-(difluoromethyl)-2-(methoxymethyl)imidazo[2,1-b][1,3,4]thiadiazol-5-yl]methyl]-3-[2,2-difluorocyclopropyl]-2H-pyrrol-5-one], for which the Ki was 3.16 to 10 nM.

For `CCCC1=CC(=O)N(Cc2c(C(F)(F)F)nc3sc(COC)nn23)C1` [Example 1, 1-[[2-(methoxymethyl)-6-(trifluoromethyl)imidazo[2,1-b][1,3,4]thiadiazol-5-yl]methyl]-3-propyl-2H-pyrrol-5-one], the Ki was 3.16 to 10 nM.

Consider `COCc1nn2c(CN3CC(CC(F)(F)F)=CC3=O)c(C(F)(F)F)nc2s1` [Example 2, 1-[[2-(methoxymethyl)-6-(trifluoromethyl)imidazo[2,1-b][1,3,4]thiadiazol-5-yl]methyl]-3-(2,2,2-trifluoroethyl)-2H-pyrrol-5-one], for which the Ki is 10 to 31.6 nM.

In the case of `COCc1nn2c(CN3CC(CCC(F)(F)F)=CC3=O)c(C(F)(F)F)nc2s1` [Example 3, 1-[[2-(methoxymethyl)-6-(trifluoromethyl)imidazo[2,1-b][1,3,4]thiadiazol-5-yl]methyl]-3-(3,3,3-trifluoropropyl)-2H-pyrrol-5-one], the Ki was 3.16 to 10 nM.

In the case of `CCCC1=CC(=O)N(Cc2c(C)nc3sc(COC)nn23)C1` [Example 4, 1-[[2-(methoxymethyl)-6-methyl-imidazo[2,1-b][1,3,4]thiadiazol-5-yl]methyl]-3-propyl-2H-pyrrol-5-one], the Ki is 3.16 to 10 nM.

The molecule `COCc1nn2c(CN3CC(CC(F)(F)F)=CC3=O)c(Cl)nc2s1` [Example 5, 1-[[6-chloro-2-(methoxymethyl)imidazo[2,1-b][1,3,4]thiadiazol-5-yl]methyl]-3-(2,2,2-trifluoroethyl)-2H-pyrrol-5-one] showed a Ki of 10 to 31.6 nM.

The molecule `CCCC1=CC(=O)N(Cc2c(Cl)nc3sc(COC)nn23)C1` [Example 6, 1-[[6-chloro-2-(methoxymethyl)imidazo[2,1-b][1,3,4]thiadiazol-5-yl]methyl]-3-propyl-2H-pyrrol-5-one] showed a Ki of 3.16 to 10 nM.

As for `COCc1nn2c(CN3CC(CCC(F)(F)F)=CC3=O)c(Cl)nc2s1` [Example 7, 1-[[6-chloro-2-(methoxymethyl)imidazo[2,1-b][1,3,4]thiadiazol-5-yl]methyl]-3-(3,3,3-trifluoropropyl)-2H-pyrrol-5-one], the Ki is 3.16 to 10 nM.

`CCCC1=CC(=O)N(Cc2c(C(F)F)nc3sc(COC)nn23)C1` [Example 8, 1-[[6-(difluoromethyl)-2-(methoxymethyl)imidazo[2,1-b][1,3,4]thiadiazol-5-yl]methyl]-3-propyl-2H-pyrrol-5-one] gave a Ki of 3.16 to 10 nM.

Turning to `COCc1nn2c(CN3CC(CC(F)(F)F)=CC3=O)c(C)nc2s1` [Example 9, 1-[[2-(methoxymethyl)-6-methyl-imidazo[2,1-b][1,3,4]thiadiazol-5-yl]methyl]-3-(2,2,2-trifluoroethyl)-2H-pyrrol-5-one], the Ki was 3.16 to 10 nM.

For the molecule `COCc1nn2c(CN3CC(CC(F)(F)F)=CC3=O)c(C(F)F)nc2s1` [Example 10, 1-[[6-(difluoromethyl)-2-(methoxymethyl)imidazo[2,1-b][1,3,4]thiadiazol-5-yl]methyl]-3-(2,2,2-trifluoroethyl)-2H-pyrrol-5-one], the Ki was 3.16 to 10 nM.

Take `COCc1nn2c(CN3CC(CC(F)(F)F)=CC3=O)c(C3(F)CC3)nc2s1` [Example 11, 1-[[6-(1-fluorocyclopropyl)-2-(methoxymethyl)imidazo[2,1-b][1,3,4]thiadiazol-5-yl]methyl]-3-(2,2,2-trifluoroethyl)-2H-pyrrol-5-one]: the Ki is 10 to 31.6 nM and 3.16 to 10 nM.

`COCc1nn2c(CN3CC(CC(F)(F)Cl)=CC3=O)c(C(F)(F)F)nc2s1` [Example 12, 3-(2-chloro-2,2-difluoro-ethyl)-1-[[2-(methoxymethyl)-6-(trifluoromethyl)imidazo[2,1-b][1,3,4]thiadiazol-5-yl]methyl]-2H-pyrrol-5-one]: the Ki is 3.16 to 10 nM.

In the case of `COCc1nn2c(CN3CC(CCC(F)(F)F)=CC3=O)c(C)nc2s1` [Example 13, 1-[[2-(methoxymethyl)-6-methyl-imidazo[2,1-b][1,3,4]thiadiazol-5-yl]methyl]-3-(3,3,3-trifluoropropyl)-2H-pyrrol-5-one], the Ki was 3.16 to 10 nM.

Take `COCc1nn2c(CN3CC(CCC(F)(F)F)=CC3=O)c(C(F)F)nc2s1` [Example 14, 1-[[6-(difluoromethyl)-2-(methoxymethyl)imidazo[2,1-b][1,3,4]thiadiazol-5-yl]methyl]-3-(3,3,3-trifluoropropyl)-2H-pyrrol-5-one]: the Ki was 3.16 to 10 nM.

Take `COCc1nn2c(CN3CC(CC(C)(F)F)=CC3=O)c(C(F)(F)F)nc2s1` [Example 15, 3-(2,2-difluoropropyl)-1-[[2-(methoxymethyl)-6-(trifluoromethyl)imidazo[2,1-b][1,3,4]thiadiazol-5-yl]methyl]-2H-pyrrol-5-one]: the Ki is 3.16 to 10 nM.

Consider `COCc1nn2c(CN3CC(CC(C)(F)F)=CC3=O)c(C(F)F)nc2s1` [Example 16, 1-[[6-(difluoromethyl)-2-(methoxymethyl)imidazo[2,1-b][1,3,4]thiadiazol-5-yl]methyl]-3-(2,2-difluoropropyl)-2H-pyrrol-5-one], for which the Ki is 3.16 to 10 nM.

`COCc1nn2c(CN3CC(CC(C)(F)F)=CC3=O)c(C)nc2s1` [Example 20, 3-(2,2-difluoropropyl)-1-[[2-(methoxymethyl)-6-methyl-imidazo[2,1-b][1,3,4]thiadiazol-5-yl]methyl]-2H-pyrrol-5-one] gave a Ki of 10 to 31.6 nM.

`Cc1nc2sc(CO)nn2c1CN1CC(CCC(F)(F)F)=CC1=O` [Example 21, 1-[[2-(hydroxymethyl)-6-methyl-imidazo[2,1-b][1,3,4]thiadiazol-5-yl]methyl]-3-(3,3,3-trifluoropropyl)-2H-pyrrol-5-one] had a Ki of 31.6 to 316 nM.

Regarding `O=C1C=C(CCC(F)(F)F)CN1Cc1c(C(F)F)nc2sc(CO)nn12` [Example 22, 1-[[6-(difluoromethyl)-2-(hydroxymethyl)imidazo[2,1-b][1,3,4]thiadiazol-5-yl]methyl]-3-(3,3,3-trifluoropropyl)-2H-pyrrol-5-one], the Ki is 31.6 to 316 nM.

Regarding `O=C1C=C(CC(F)(F)F)CN1Cc1c(C(F)F)nc2sc(CO)nn12` [Example 23, 1-[[6-(difluoromethyl)-2-(hydroxymethyl)imidazo[2,1-b][1,3,4]thiadiazol-5-yl]methyl]-3-(2,2,2-trifluoroethyl)-2H-pyrrol-5-one], the Ki was 31.6 to 316 nM.
